The NIST ThermoML archive (doi:10.1021/je1007197)

Experiment: xn = mol fraction of the nth substance listed
Conditions: Liquid, Hot wire method

CCCCOCCO [2-butoxyethan-1-ol] + O
Conditions	thermal conductivity [W/m/K]
304.15 K, 100 kPa, x1 = 0.0478	0.4533
304.15 K, 100 kPa, x1 = 0.1732	0.2813
304.15 K, 100 kPa, x1 = 0.5	0.1837
304.15 K, 100 kPa, x1 = 0.75	0.1655
304.15 K, 10300 kPa, x1 = 0.5	0.1877
304.15 K, 10300 kPa, x1 = 0.75	0.169
304.15 K, 14200 kPa, x1 = 0.0478	0.4568
304.15 K, 15000 kPa, x1 = 0.5	0.189
304.15 K, 19300 kPa, x1 = 0.75	0.1717
304.15 K, 20300 kPa, x1 = 0.1732	0.2857
304.15 K, 26700 kPa, x1 = 0.5	0.1936
304.15 K, 27300 kPa, x1 = 0.0478	0.4622
304.15 K, 30000 kPa, x1 = 0.1732	0.2896
304.15 K, 39500 kPa, x1 = 0.75	0.1771
304.15 K, 41800 kPa, x1 = 0.0478	0.468
304.15 K, 41800 kPa, x1 = 0.5	0.1963
304.15 K, 47200 kPa, x1 = 0.1732	0.2942
304.15 K, 54700 kPa, x1 = 0.5	0.1995
304.15 K, 54700 kPa, x1 = 0.75	0.1812
304.15 K, 55400 kPa, x1 = 0.0478	0.4704
304.15 K, 70100 kPa, x1 = 0.0478	0.4758
304.15 K, 70200 kPa, x1 = 0.1732	0.3008
304.15 K, 70200 kPa, x1 = 0.5	0.2032
304.15 K, 76500 kPa, x1 = 0.75	0.1862
304.15 K, 83900 kPa, x1 = 0.0478	0.478
304.15 K, 84200 kPa, x1 = 0.1732	0.3043
304.15 K, 84200 kPa, x1 = 0.5	0.2066
304.15 K, 91200 kPa, x1 = 0.75	0.19
304.15 K, 98200 kPa, x1 = 0.0478	0.4845
304.15 K, 98200 kPa, x1 = 0.1732	0.3077
304.15 K, 98200 kPa, x1 = 0.75	0.1901
304.15 K, 108700 kPa, x1 = 0.5	0.2127
304.15 K, 110400 kPa, x1 = 0.1732	0.311
304.15 K, 112100 kPa, x1 = 0.0478	0.4875
304.15 K, 112200 kPa, x1 = 0.75	0.1951
304.15 K, 124800 kPa, x1 = 0.5	0.2157
304.15 K, 126000 kPa, x1 = 0.0478	0.4917
304.15 K, 126200 kPa, x1 = 0.1732	0.3147
304.15 K, 127600 kPa, x1 = 0.75	0.1976
304.15 K, 138700 kPa, x1 = 0.0478	0.4958
304.15 K, 140100 kPa, x1 = 0.1732	0.3175
304.15 K, 140100 kPa, x1 = 0.5	0.2189
304.15 K, 140100 kPa, x1 = 0.75	0.2005
304.15 K, 150600 kPa, x1 = 0.1732	0.3195
304.15 K, 150600 kPa, x1 = 0.75	0.2022
317.15 K, 100 kPa, x1 = 0.0478	0.4606
317.15 K, 16400 kPa, x1 = 0.0478	0.4669
317.15 K, 25500 kPa, x1 = 0.0478	0.4697
317.15 K, 41800 kPa, x1 = 0.0478	0.475
317.15 K, 56100 kPa, x1 = 0.0478	0.4789
317.15 K, 70600 kPa, x1 = 0.0478	0.485
317.15 K, 84200 kPa, x1 = 0.0478	0.4875
317.15 K, 98200 kPa, x1 = 0.0478	0.4926
317.15 K, 112200 kPa, x1 = 0.0478	0.4983
317.15 K, 124000 kPa, x1 = 0.0478	0.5008
317.15 K, 141000 kPa, x1 = 0.0478	0.5066
320.9 K, 100 kPa, x1 = 0.0478	0.4774
320.9 K, 2300 kPa, x1 = 0.0478	0.4714
320.9 K, 5000 kPa, x1 = 0.0478	0.4639
320.9 K, 7500 kPa, x1 = 0.0478	0.4677
320.9 K, 10000 kPa, x1 = 0.0478	0.4694
320.9 K, 12500 kPa, x1 = 0.0478	0.4703
320.9 K, 15000 kPa, x1 = 0.0478	0.4705
320.9 K, 19500 kPa, x1 = 0.0478	0.4737
320.9 K, 20000 kPa, x1 = 0.0478	0.4742
320.9 K, 29800 kPa, x1 = 0.0478	0.4774
320.9 K, 52500 kPa, x1 = 0.0478	0.4855
320.9 K, 70200 kPa, x1 = 0.0478	0.4855
320.9 K, 87700 kPa, x1 = 0.0478	0.4986
320.9 K, 105200 kPa, x1 = 0.0478	0.5044
320.9 K, 126200 kPa, x1 = 0.0478	0.5123
321.15 K, 100 kPa, x1 = 0.5	0.1829
321.15 K, 100 kPa, x1 = 0.75	0.1624
321.15 K, 10000 kPa, x1 = 0.5	0.1864
321.15 K, 10000 kPa, x1 = 0.75	0.1656
321.15 K, 19300 kPa, x1 = 0.5	0.1892
321.15 K, 19300 kPa, x1 = 0.75	0.1693
321.15 K, 19700 kPa, x1 = 0.5	0.1896
321.15 K, 28300 kPa, x1 = 0.75	0.1718
321.15 K, 39300 kPa, x1 = 0.75	0.1744
321.15 K, 41800 kPa, x1 = 0.5	0.1959
321.15 K, 56100 kPa, x1 = 0.5	0.2001
321.15 K, 56100 kPa, x1 = 0.75	0.1792
321.15 K, 70200 kPa, x1 = 0.5	0.2034
321.15 K, 71600 kPa, x1 = 0.75	0.1836
321.15 K, 84200 kPa, x1 = 0.5	0.2073
321.15 K, 84200 kPa, x1 = 0.75	0.1871
321.15 K, 96500 kPa, x1 = 0.5	0.2099
321.15 K, 98900 kPa, x1 = 0.75	0.1907
321.15 K, 111500 kPa, x1 = 0.75	0.1929
321.15 K, 112200 kPa, x1 = 0.5	0.2144
321.15 K, 124800 kPa, x1 = 0.75	0.1959
321.15 K, 126900 kPa, x1 = 0.5	0.2172
321.15 K, 141500 kPa, x1 = 0.5	0.2201
321.15 K, 142200 kPa, x1 = 0.75	0.1998
321.15 K, 149900 kPa, x1 = 0.5	0.2213
321.15 K, 150600 kPa, x1 = 0.75	0.2016
322 K, 100 kPa, x1 = 0.0478	0.4932
322 K, 5400 kPa, x1 = 0.0478	0.4886
322 K, 20000 kPa, x1 = 0.0478	0.4931
322 K, 34600 kPa, x1 = 0.0478	0.5006
322 K, 52500 kPa, x1 = 0.0478	0.5069
322 K, 70200 kPa, x1 = 0.0478	0.5149
322 K, 87700 kPa, x1 = 0.0478	0.5221
322 K, 105200 kPa, x1 = 0.0478	0.528
322 K, 119200 kPa, x1 = 0.0478	0.5322
322 K, 133200 kPa, x1 = 0.0478	0.5354
335 K, 100 kPa, x1 = 0.1732	0.2804
335 K, 10000 kPa, x1 = 0.1732	0.2851
335 K, 19000 kPa, x1 = 0.1732	0.2895
335 K, 41800 kPa, x1 = 0.1732	0.2972
335 K, 70200 kPa, x1 = 0.1732	0.306
335 K, 84200 kPa, x1 = 0.1732	0.3077
335 K, 98200 kPa, x1 = 0.1732	0.3111
335 K, 112200 kPa, x1 = 0.1732	0.3153
335 K, 125500 kPa, x1 = 0.1732	0.3205
335 K, 137300 kPa, x1 = 0.1732	0.3218
338.15 K, 100 kPa, x1 = 0.5	0.1796
338.15 K, 100 kPa, x1 = 0.75	0.1594
338.15 K, 10400 kPa, x1 = 0.5	0.1841
338.15 K, 11000 kPa, x1 = 0.75	0.1637
338.15 K, 19000 kPa, x1 = 0.5	0.1866
338.15 K, 19500 kPa, x1 = 0.5	0.1867
338.15 K, 19500 kPa, x1 = 0.75	0.1663
338.15 K, 30700 kPa, x1 = 0.75	0.1702
338.15 K, 39300 kPa, x1 = 0.75	0.1723
338.15 K, 41800 kPa, x1 = 0.5	0.1936
338.15 K, 56100 kPa, x1 = 0.5	0.1986
338.15 K, 56100 kPa, x1 = 0.75	0.1767
338.15 K, 70200 kPa, x1 = 0.5	0.2018
338.15 K, 70200 kPa, x1 = 0.75	0.1812
338.15 K, 80700 kPa, x1 = 0.5	0.2039
338.15 K, 91200 kPa, x1 = 0.75	0.1868
338.15 K, 98200 kPa, x1 = 0.5	0.2083
338.15 K, 105200 kPa, x1 = 0.75	0.1907
338.15 K, 112200 kPa, x1 = 0.5	0.2118
338.15 K, 117800 kPa, x1 = 0.75	0.1924
338.15 K, 126200 kPa, x1 = 0.5	0.2146
338.15 K, 131800 kPa, x1 = 0.75	0.1964
338.15 K, 140800 kPa, x1 = 0.5	0.2183
338.15 K, 147100 kPa, x1 = 0.75	0.1997
346.5 K, 100 kPa, x1 = 0.1732	0.2659
346.5 K, 10000 kPa, x1 = 0.1732	0.2753
346.5 K, 20000 kPa, x1 = 0.1732	0.2796
346.5 K, 29500 kPa, x1 = 0.1732	0.2834
346.5 K, 49000 kPa, x1 = 0.1732	0.2904
346.5 K, 84200 kPa, x1 = 0.1732	0.3009
346.5 K, 98200 kPa, x1 = 0.1732	0.3029
346.5 K, 112200 kPa, x1 = 0.1732	0.3046
346.5 K, 122700 kPa, x1 = 0.1732	0.31
346.5 K, 140100 kPa, x1 = 0.1732	0.3122
346.5 K, 148500 kPa, x1 = 0.1732	0.3128
